Values joined by “and” are separate entries in the source; they are usually repeats but may differ in a detail not shown here. Identical values can stand only once. Toxic doses and inconclusive results are not listed. No stated cut-off is given here; in the data, active means T/C of 150% or more; inactive means T/C below 125%.
System: L1210 leukemia ip in BDF1 mice, survival T/C
Test: NCI In Vivo Anticancer Drug Screen. Data for tumor model L1210 Leukemia (intraperitoneal) in B6D2F1 (BDF1) mice
Conditions: endpoint: mean survival time, higher = longer survival
In short: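 Value reflects the ratio of survival in compound-treated mice to survival in vehicle-treated controls, with both groups carrying the same transplanted tumor.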

[1] = dose: 100.0 mg/kg/injection, schedule: Q04DX003 (ip), vehicle: saline with Tween-80
[2] = dose: 200.0 mg/kg/injection, schedule: Q04DX003 (ip), vehicle: saline with Tween-80
[3] = dose: 400.0 mg/kg/injection, schedule: Q04DX003 (ip), vehicle: saline with Tween-80
[4] = dose: 100.0 mg/kg/injection, schedule: Q01DX001 (ip), vehicle: saline
[5] = dose: 200.0 mg/kg/injection, schedule: Q01DX001 (ip), vehicle: saline
[6] = dose: 400.0 mg/kg/injection, schedule: Q01DX001 (ip), vehicle: saline
[7] = dose: 50.0 mg/kg/injection, schedule: Q01DX001 (ip), vehicle: saline
[8] = dose: 100.0 mg/kg/injection, schedule: Q04DX003 (ip), vehicle: saline
[9] = dose: 200.0 mg/kg/injection, schedule: Q04DX003 (ip), vehicle: saline
[10] = dose: 100.0 mg/kg/injection, schedule: Q01DX009 (ip), vehicle: saline
[11] = dose: 200.0 mg/kg/injection, schedule: Q01DX009 (ip), vehicle: saline
[12] = dose: 400.0 mg/kg/injection, schedule: Q04DX003 (ip), vehicle: saline
[13] = dose: 100.0 mg/kg/injection, schedule: Q01DX009 (ip), vehicle: saline with Tween-80
[14] = dose: 200.0 mg/kg/injection, schedule: Q01DX009 (ip), vehicle: saline with Tween-80
[15] = dose: 400.0 mg/kg/injection, schedule: Q01DX009 (ip), vehicle: saline with Tween-80
[16] = dose: 100.0 mg/kg/injection, schedule: Q01DX009 (ip), vehicle: Klucel (hydroxypropylcellulose) (HPC)
[17] = dose: 400.0 mg/kg/injection, schedule: Q01DX009 (ip), vehicle: Klucel (hydroxypropylcellulose) (HPC)
[18] = dose: 100.0 mg/kg/injection, schedule: Q04DX003 (ip), vehicle: Klucel (hydroxypropylcellulose) (HPC)
[19] = dose: 200.0 mg/kg/injection, schedule: Q01DX009 (ip), vehicle: Klucel (hydroxypropylcellulose) (HPC)
[20] = dose: 200.0 mg/kg/injection, schedule: Q04DX003 (ip), vehicle: Klucel (hydroxypropylcellulose) (HPC)
[21] = dose: 400.0 mg/kg/injection, schedule: Q04DX003 (ip), vehicle: Klucel (hydroxypropylcellulose) (HPC)
[22] = dose: 5.0 mg/kg/injection, schedule: Q01DX001 (ip), vehicle: saline
[23] = dose: 10.0 mg/kg/injection, schedule: Q01DX001 (ip), vehicle: saline

Measured: T/C

CCC(NC(=O)OCc1ccccc1)C(=O)O (centres undefined)
inactive: [1] 98 % of control | [2] 93 % of control | [3] 97 % of control

S=C(Nc1ccccc1)NC1CC2C=CC1CC2 (centres undefined)
inactive: [4] 90 % of control | [5] 92 % of control | [6] 113 % of control

Cc1ccc(S(=O)(=O)OCC2Oc3ccccc3O2)cc1
inactive: dose: 75.0 mg/kg/injection, schedule: Q04DX003 (ip), vehicle: Klucel (hydroxypropylcellulose) (HPC) 93 % of control | dose: 150.0 mg/kg/injection, schedule: Q04DX003 (ip), vehicle: Klucel (hydroxypropylcellulose) (HPC) 107 % of control | dose: 300.0 mg/kg/injection, schedule: Q04DX003 (ip), vehicle: Klucel (hydroxypropylcellulose) (HPC) 100 % of control

C=C1C(=O)N(C)CCC1C(CC)C(=O)OC (centres undefined)
inactive: dose: 25.0 mg/kg/injection, schedule: Q01DX001 (ip), vehicle: saline 101 % of control | dose: 25.0 mg/kg/injection, schedule: Q04DX003 (ip), vehicle: saline 95 % of control | dose: 25.0 mg/kg/injection, schedule: Q04DX003 (oral), vehicle: saline 107 % of control | [7] 88 % of control | dose: 50.0 mg/kg/injection, schedule: Q04DX003 (ip), vehicle: saline 93 % of control | dose: 50.0 mg/kg/injection, schedule: Q04DX003 (oral), vehicle: saline 109 % of control | [4] 98 % of control | [8] 93 % of control | dose: 100.0 mg/kg/injection, schedule: Q04DX003 (oral), vehicle: saline 98 % of control | [5] 93 % of control | [9] 95 % of control | dose: 200.0 mg/kg/injection, schedule: Q04DX003 (oral), vehicle: saline 94 % of control

CC(=O)OCC[N+](C)(C)CCCCC[N+](C)(C)CCOC(C)=O
inactive: [10] 100 % of control | [8] 95 % of control | [11] 113 % of control | [9] 102 % of control | [12] 88 % of control

COc1ccc(C=NCCN=Cc2ccc(OC)c(OC)c2)cc1OC
inactive: [4] 100 % of control | [13] 101 % of control | [8] 92 % of control | [5] 104 % of control | [14] 95 % of control | [9] 87 % of control | [6] 102 % of control | [15] 95 % of control | [12] 92 % of control

COc1ccccc1NC(=O)c1ccccc1
inactive: [16] 89 % of control | [17] 95 % of control

Nc1nc(-c2cc(Br)ccc2N=NN2CCCCC2)nc2ccc(Br)cc12
inactive: dose: 100.0 mg/kg/injection, schedule: Q04DX002 (ip), vehicle: Klucel (hydroxypropylcellulose) (HPC) 86 % of control | dose: 200.0 mg/kg/injection, schedule: Q04DX002 (ip), vehicle: Klucel (hydroxypropylcellulose) (HPC) 89 % of control | dose: 400.0 mg/kg/injection, schedule: Q04DX002 (ip), vehicle: Klucel (hydroxypropylcellulose) (HPC) 99 % of control

Cc1ccc(NCc2ccccc2O)c(C)c1
inactive: dose: 100.0 mg/kg/injection, schedule: Q04DX003 (ip), vehicle: gum acacia 94 % of control | dose: 200.0 mg/kg/injection, schedule: Q04DX003 (ip), vehicle: gum acacia 101 % of control | dose: 400.0 mg/kg/injection, schedule: Q04DX003 (ip), vehicle: gum acacia 99 % of control

CCOC(=O)NNC(N)=S
inactive: [16] 102 % of control | [18] 103 % of control | [19] 97 % of control | [20] 94 % of control | [17] 98 % of control | [21] 100 % of control

Cc1cc(CN)c(C)cc1CN
inactive: dose: 50.0 mg/kg/injection, schedule: Q01DX009 (ip), vehicle: saline 96 % of control | [10] 95 % of control | [8] 103 % of control | [11] 86 % of control | [9] 97 % of control

CC1(CO)CCCC2(C)C3=C(CCCC3)CCC12 (centres undefined)
inactive: dose: 5.0 mg/kg/injection, schedule: Q01DX001 (ip), vehicle: other 102 % of control | dose: 10.0 mg/kg/injection, schedule: Q01DX001 (ip), vehicle: other 96 % of control | dose: 20.0 mg/kg/injection, schedule: Q01DX001 (ip), vehicle: other 100 % of control | dose: 40.0 mg/kg/injection, schedule: Q01DX001 (ip), vehicle: other 98 % of control | dose: 80.0 mg/kg/injection, schedule: Q01DX001 (ip), vehicle: other 98 % of control

O=C1CCC(N2C(=O)C3CCCCC3C2=O)C(=O)N1 (centres undefined)
inactive: [8] 97 % of control | [9] 93 % of control | [12] 101 % of control

COc1ccc(C(=O)OC(c2ccccc2)c2ccccc2)cc1
inactive: [4] 98 % of control | [5] 100 % of control | [6] 89 % of control

S=C(NCc1ccccc1)[S][Sb]([S]C(=S)NCc1ccccc1)[c]1ccccc1
inactive: [22] 88 % of control | [23] 109 % of control

O=C(CCCC(=O)N/N=C/c1cc(Br)cc(Br)c1)N/N=C\c1cc(Br)cc(Br)c1
inactive: [7] 96 % of control | [4] 98 % of control | [5] 96 % of control | [6] 90 % of control

CCCC(C)(C)C(=O)Nc1cccc(OC(=O)NC(C)C)c1
inactive: [13] 96 % of control | [14] 86 % of control | [15] 91 % of control

CCCNC(=O)Nc1cccc(C(F)(F)F)c1
inactive: [13] 100 % of control | [1] 100 % of control | [14] 97 % of control | [2] 97 % of control | [15] 88 % of control | [3] 106 % of control

Nc1nc(N)c2nc(CNc3ccccc3)cnc2n1
inactive: dose: 20.0 mg/kg/injection, schedule: Q01DX009 (ip), vehicle: Klucel (hydroxypropylcellulose) (HPC) 96 % of control | dose: 40.0 mg/kg/injection, schedule: Q01DX009 (ip), vehicle: Klucel (hydroxypropylcellulose) (HPC) 105 % of control | dose: 80.0 mg/kg/injection, schedule: Q01DX009 (ip), vehicle: Klucel (hydroxypropylcellulose) (HPC) 96 % of control

Cc1ccc(S(=O)(=O)N(CCCc2c(Cc3ccccc3)nc(N)[nH]c2=O)c2ccccc2)cc1
inactive: [16] 88 % of control | [18] 97 % of control and 105 % of control | [19] 93 % of control | [20] 113 % of control and 88 % of control | [17] 100 % of control | [21] 93 % of control

O=Nc1ccc(N(CCO)CCO)cc1
inactive: [22] 97 % of control | [23] 97 % of control | dose: 20.0 mg/kg/injection, schedule: Q01DX001 (ip), vehicle: saline 101 % of control | dose: 40.0 mg/kg/injection, schedule: Q01DX001 (ip), vehicle: saline 111 % of control

C[N+](C)(C)Cc1ncccc1OC(=O)N(c1ccccc1)c1ccccc1
inactive: dose: 25.0 mg/kg/injection, schedule: Q04DX003 (ip), vehicle: saline with Tween-80 96 % of control | dose: 50.0 mg/kg/injection, schedule: Q04DX003 (ip), vehicle: saline with Tween-80 96 % of control | [1] 96 % of control and 101 % of control

CON(C)S(=O)(=O)c1ccc([N+](=O)[O-])cc1
inactive: dose: 100.0 mg/kg/injection, schedule: Q01DX001 (ip), vehicle: Klucel (hydroxypropylcellulose) (HPC) 102 % of control | dose: 200.0 mg/kg/injection, schedule: Q01DX001 (ip), vehicle: Klucel (hydroxypropylcellulose) (HPC) 98 % of control

CCCCCCC(C(=O)OCC)P(=O)(OCC)OCC (centres undefined)
inactive: dose: 75.0 mg/kg/injection, schedule: Q01DX001 (ip), vehicle: saline 101 % of control | dose: 150.0 mg/kg/injection, schedule: Q01DX001 (ip), vehicle: saline 94 % of control | dose: 300.0 mg/kg/injection, schedule: Q01DX001 (ip), vehicle: saline 100 % of control

COc1cc(/C=N\Nc2ccccc2[N+](=O)[O-])cc(OC)c1OC
inactive: [1] 86 % of control | [2] 91 % of control | [3] 89 % of control
